The target of assay [1] is Human immunodeficiency virus type 1 protease (Human immunodeficiency virus 1, UniProt Q72874). The assay is described as follows: Tested in vitro for the ability to inhibit HIV-1 protease.
Assay [2] has as its system Human immunodeficiency virus 1. Kind of assay: Tested in vitro against MT-4 human lymphoid cells infected with the type IIIb isolate. Format: functional. Conditions: Human immunodeficiency virus 1, lymphoid; read-out: CIC95.
Assay [3] deals with Human immunodeficiency virus 1. The assay is described as follows: Ratio of CIC95 to that of IC50 was determined. Type of assay: functional.

Where only a bound is given, the exact number is not on record here.

Usually IC50 stands for the concentration needed to halve the response being measured. A lower IC50 goes with greater potency. Compound `CC(C)[C@@H]1[C@H](OC(=O)N[C@@H](Cc2ccccc2)[C@H](O)CN2CCN(C3CCOCC3)C[C@H]2C(=O)NC(C)(C)C)CCS1(=O)=O` yielded an IC50 in assay [1] of 0.0346 µM. Also, the IC95 in assay [2] is over 0.2 µM.
With `CC(C)[C@@H]1[C@H](OC(=O)N[C@@H](Cc2ccccc2)[C@H](O)CN2CCN(C3CCSCC3)C[C@H]2C(=O)NC(C)(C)C)CCS1(=O)=O`, in assay [2], the IC95 was found to be 0.2 µM.
Consider `CC(C)CN1CCN(C[C@@H](O)[C@H](Cc2ccccc2)NC(=O)O[C@@H]2CCS(=O)(=O)[C@@H]2C(C)C)[C@H](C(=O)NC(C)(C)C)C1`, for which, in assay [2], the IC95 is 0.1 µM.
Turning to `CC(C)[C@@H]1[C@H](OC(=O)N[C@@H](Cc2ccccc2)[C@H](O)CN2CCN(CC(C)(C)C)C[C@H]2C(=O)NC(C)(C)C)CCS1(=O)=O`, the IC95 in assay [2] is 0.2 µM.
Still for that read-out and setting: with `CC(C)[C@@H]1[C@H](OC(=O)N[C@@H](Cc2ccccc2)[C@H](O)CN2CCN(C3CCCC3)C[C@H]2C(=O)NC(C)(C)C)CCS1(=O)=O` the figure was 0.15 µM.
Turning to `CC(C)[C@@H]1[C@H](OC(=O)N[C@@H](Cc2ccccc2)[C@H](O)CN2CCN(C3CCSC3)C[C@H]2C(=O)NC(C)(C)C)CCS1(=O)=O` (some centres not stated), in assay [1], the IC50 worked out at 0.0083 µM. For the same compound, the IC95 in assay [2] was over 0.2 µM.
Compound `CC(C)[C@@H]1[C@H](OC(=O)N[C@@H](Cc2ccccc2)[C@H](O)CN2CCN(C3Cc4ccccc4C3)C[C@H]2C(=O)NC(C)(C)C)CCS1(=O)=O` showed an IC50 in assay [1] of 0.0053 µM. Besides, in assay [2], the IC95 stood at 0.1 µM. In addition, in assay [3], the Ratio is 19.
`CCC(CC)N1CCN(C[C@@H](O)[C@H](Cc2ccccc2)NC(=O)O[C@@H]2CCS(=O)(=O)[C@@H]2C(C)C)[C@H](C(=O)NC(C)(C)C)C1`: the IC95 in assay [2] was over 0.2 µM.
On the same count and under the same terms, for `CCCN1CCN(C[C@@H](O)[C@H](Cc2ccccc2)NC(=O)O[C@@H]2CCS(=O)(=O)[C@@H]2C(C)C)[C@H](C(=O)NC(C)(C)C)C1` the value was 0.1 µM; for `CC(C)[C@@H]1[C@H](OC(=O)N[C@@H](Cc2ccccc2)[C@H](O)CN2CCN(C3CCC3)C[C@H]2C(=O)NC(C)(C)C)CCS1(=O)=O`, 0.05 µM.
On the same count and under the same terms, for `CC(C)[C@@H]1[C@H](OC(=O)N[C@@H](Cc2ccccc2)[C@H](O)CN2CCN(C(C)C)C[C@H]2C(=O)NC(C)(C)C)CCS1(=O)=O` the value was over 0.2 µM.
Regarding `CC(C)[C@@H]1[C@H](OC(=O)N[C@@H](Cc2ccccc2)[C@H](O)CN2CCN(C3CC(c4ccccc4)C3)C[C@H]2C(=O)NC(C)(C)C)CCS1(=O)=O` (some centres not stated), the IC50 in assay [1] amounted to 0.0038 µM. The IC95 in assay [2] came to 0.1 µM. In addition, the Ratio in assay [3] stood at 26.
Take `CC(C)[C@@H]1[C@H](OC(=O)N[C@@H](Cc2ccccc2)[C@H](O)CN2CCN(C3CCCCCC3)C[C@H]2C(=O)NC(C)(C)C)CCS1(=O)=O`: the IC95 in assay [2] amounted to 0.2 µM.
As for `CC(C)[C@@H]1[C@H](OC(=O)N[C@@H](Cc2ccccc2)[C@H](O)CN2CCN(C3CCCCC3)C[C@H]2C(=O)NC(C)(C)C)CCS1(=O)=O`, the IC95 in assay [2] is 0.2 µM.
For the compound `CC(C)[C@@H]1[C@H](OC(=O)N[C@@H](Cc2ccccc2)[C@H](O)CN2CCN(C3CC3)C[C@H]2C(=O)NC(C)(C)C)CCS1(=O)=O`, the IC95 in assay [2] was 0.1 µM.
Take `CCCCCCCCN1CCN(C[C@@H](O)[C@H](Cc2ccccc2)NC(=O)O[C@@H]2CCS(=O)(=O)[C@@H]2C(C)C)[C@H](C(=O)NC(C)(C)C)C1`: the IC95 in assay [2] amounted to 0.2 µM.

(Values after ChEMBL document CHEMBL1150509, “Cycloalkylpiperazines as HIV-1 protease inhibitors: enhanced oral absorption” (Bioorg Med Chem Lett, 1995).)
